# Results from patent publication US8999964B2, “TGR5 modulators and methods of use thereof” (Intercept Pharmaceuticals, Inc., priority 2008, dated 2015).
# Structures can show the parent of a compound that is named as a salt.
# Key:
# [1] = molecular target: bovine serum albumin (Bos taurus, UniProt P02769); experiment: Albumin binding by equilibrium dialysis; format: in vitro ADME; parameters: 5% bovine serum albumin-saline solution (pH 7.2); from tissue; host or cells: bovine serum (by the name of the product); conditions: 100 μM BA in 5% bovine serum albumin-saline, pH 7.2
# Procedure: The extent of albumin binding was evaluated by equilibrium dialysis at a fixed BA-albumin ratio. Each BA was dissolved at a concentration of 100 μM in 5% bovine serum albumin-saline solution (pH 7.2) and left to stand for 24 h at 25° C. Two milliliters of this solution was dialyzed in cellulose sacs having a molecular weight cut-off of 12,000-14,000 Dalton against 25 ml of saline solution. The system was equilibrated by gently shaking for 72 h at 25° C. BA concentrations of the dialyzed solution (corresponding to the free unbound fraction) and of the starting solution were determined with HPLC-ESI-MS/MS in the same conditions of the previous analysis.
# The percentage of albumin binding was calculated from the initial BA concentration and from the unbound concentration in the dialyzed fraction.
# [2] = molecular target: T1, PXR (Homo sapiens, UniProt O75469); experiment: PXR ligands competition assay (binding assay); conditions: Table 6
# T1 sequence (O75469 1-434): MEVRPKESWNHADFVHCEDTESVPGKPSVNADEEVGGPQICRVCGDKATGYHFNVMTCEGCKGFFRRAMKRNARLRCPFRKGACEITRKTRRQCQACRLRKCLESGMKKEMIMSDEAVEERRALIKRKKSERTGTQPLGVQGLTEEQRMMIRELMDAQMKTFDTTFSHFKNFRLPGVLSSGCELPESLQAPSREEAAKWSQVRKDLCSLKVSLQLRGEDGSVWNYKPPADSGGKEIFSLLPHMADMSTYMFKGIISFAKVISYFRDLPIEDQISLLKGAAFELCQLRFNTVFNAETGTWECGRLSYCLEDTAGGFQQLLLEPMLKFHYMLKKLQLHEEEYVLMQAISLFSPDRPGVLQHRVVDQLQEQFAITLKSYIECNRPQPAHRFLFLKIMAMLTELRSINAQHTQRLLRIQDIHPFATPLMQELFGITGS
# [3] = test system: intestinal bacteria; experiment: In vitro metabolic stability in human stools culture; format: in vitro ADME
# Procedure: Homogenized fresh human stools (500 mg) were transferred into sterile vials to which 5 mL of sterilized chopped meat-glucose medium (Scott Lab., Fiskville, R.I.) was added. BAs were then added at a final concentration of 0.05 mM. Vials were incubated at 37° C.; then, at 0, 1, 2, 4, 8 and 24 h after the addition of the BA, the reaction was stopped with 150 μL of 30% KOH. The samples were centrifuged at 3500 rpm for 10 min; from the supernatant the BA were isolated by C-18 solid-phase extraction and analyzed by TLC and HPLC-ES-MS/MS.
# Thin-layer chromatography (TLC), utilizing silica gel 0.25 mm thickness plates (Merck, Darmstat, Germany), was employed as the first screening test. The solvent system used for the separation of conjugated BA was composed of propionic acid/isoamyl acetate/water/N-propanol (3:4:1:2, v/v/v/v; solvent I), and that of the unconjugated BA was acetic acid/carbon tetrachloride/isopropyl ether/isoamyl acetate/water/N-propanol/benzene (1:4:6:8:2:2, v/v/v/v/v/v; solvent II).
# [4] = Bile fistula rat, femoral (iv) infusion: bile flow, biliary secretion, metabolism; conditions: for Conc. in bile: rat bile; for Secretion (biliary): rat
# [5] = in vitro; conditions: human
# [6] = Critical micellar concentration by surface tension measurements; format: physicochemical
# Procedure: The critical micellar concentration (CMC) was determined by surface tension (ST) measurements using a maximum bubble-pressure method which give surface tension values slightly affected by potential impurities […] static methods. […] The surface tension values were plotted against the logarithm of the bile salt concentration; the regression lines corresponding to the two parts of the curve (monomeric and micellar phases) were calculated using the method of least squares, and the intersection of the lines was taken as the CMC value. From the ST vs concentration curves the value of the surface tension at the CMC (equilibrium between monomers and multimers species) was also calculated giving information about the detergency power which is related to the size of the micelles with associate surface tension lowering capacity. The CMC was evaluated by surface tension measurements in non equilibrium conditions i.e. in conditions that impurities slightly affect the surface tension results (FIG. 6). […] The presence of a hydroxyl group in the C-16 beta position reduces the hydrophobic area responsible for back to back interaction, which is to form micelles and therefore, the micelles are small and poorly detergent. This property confers to the molecule a low toxicity when accumulated in a given biological fluid or organ.
# [7] = 1-Octanol/water partition coefficient (shake-flask); conditions: bile acids as ionized species, pH 8
# Procedure: The octanol/water partition coefficient was measured for molecules in their ionized form and therefore the carboxy analogues were studied at a relatively high pH (8 to 9) to ensure full ionization of the carboxyl group. The 1-Octanol/water partition coefficient (log P) was evaluated using a conventional shake-flask procedure. […] The aqueous buffer was previously pre-saturated with 1-octanol, 5 ml of 1-octanol pre-saturated with water was then added and the samples were left to equilibrate for 2 weeks under continuous stirring at room temperature. After centrifugation the two phases were carefully separated. […] The flow rate was 150 μal/min and the column was maintained at 45° C.
# [8] = molecular target: T2, hTGR5 (Homo sapiens, UniProt Q8TDU6); experiment: FRET assay (intracellular cAMP) in NCI-H716 cells; format: cell-based; parameters: Human intestinal cell lines (NCI-H716) were plated in 96-well plates; endogenous in cells; host or cells: NCI-H716
# T2 sequence (Q8TDU6 1-330): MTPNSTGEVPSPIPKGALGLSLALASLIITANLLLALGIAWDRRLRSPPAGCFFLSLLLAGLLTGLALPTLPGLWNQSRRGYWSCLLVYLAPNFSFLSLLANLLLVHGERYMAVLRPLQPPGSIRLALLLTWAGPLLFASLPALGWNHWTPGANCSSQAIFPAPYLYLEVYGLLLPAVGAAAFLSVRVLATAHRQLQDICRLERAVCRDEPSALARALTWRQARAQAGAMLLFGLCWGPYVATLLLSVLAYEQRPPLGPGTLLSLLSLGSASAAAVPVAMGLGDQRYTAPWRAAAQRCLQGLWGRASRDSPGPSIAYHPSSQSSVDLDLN
# Procedure: The receptor binding assay was performed by measuring the level of cyclic AMP (cAMP) using FRET assay. Human intestinal cell lines (NCI-H716) were plated in 96-well plates coated with 0.75 mg/ml Matrigel (BD Biosciences) according to manufacturer's instructions just prior to use, at a density of 12×10^3 cells/well in DMEM supplemented with 10% (v/v) FBS, 100 units/ml penicillin and 100 μg/ml streptomycin sulfate, and cultured for 24 h, which allowed cell adhesion to the bottom of the plate. The cells were washed twice with PBS and medium was exchanged for cAMP assay medium [OPTIMEM containing 0.1% (w/v) BSA and 1 mM 3-isobutyl-1-methylxanthine (IBMX)]. […] The level of intracellular cAMP was determined with Lance kit (PerkinElmer). Litocholic acid was used as control ligand. Z′ factor was used to validate assays. Non linear regression curves, without constraints, were performed by using four parameter equation and GraphPad Prism Software (GraphPad Inc.), to obtain the EC50 values.
# After subtracting the average value of the basal (vehicle-treated) condition, values were applied to EC50 and/or efficacy determinations. Calculation of average EC50 and comparison of the EC50 between different compounds were done after transformation to logarithms.
# [9] = femoral infusion 1 μmol/kg/min 1 h, 75 min
# bovine serum albumin, sequence (P02769 25-607): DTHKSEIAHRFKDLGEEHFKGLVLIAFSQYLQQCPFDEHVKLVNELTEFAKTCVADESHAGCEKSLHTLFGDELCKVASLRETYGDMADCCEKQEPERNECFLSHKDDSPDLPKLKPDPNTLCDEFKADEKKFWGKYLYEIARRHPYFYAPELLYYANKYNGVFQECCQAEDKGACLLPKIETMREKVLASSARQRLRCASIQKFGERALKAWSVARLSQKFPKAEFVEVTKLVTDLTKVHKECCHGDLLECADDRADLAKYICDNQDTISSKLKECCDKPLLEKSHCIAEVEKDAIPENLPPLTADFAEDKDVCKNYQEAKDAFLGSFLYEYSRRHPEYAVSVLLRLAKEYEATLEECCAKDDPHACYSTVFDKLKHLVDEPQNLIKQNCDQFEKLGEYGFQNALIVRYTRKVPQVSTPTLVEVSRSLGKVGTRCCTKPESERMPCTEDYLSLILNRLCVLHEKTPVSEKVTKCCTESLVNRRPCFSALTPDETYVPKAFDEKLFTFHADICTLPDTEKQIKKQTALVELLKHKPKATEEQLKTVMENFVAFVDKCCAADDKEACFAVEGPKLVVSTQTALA
compound,measurement,setting,value
"CC[C@H]1[C@@H](O)[C@@H]2[C@H](CC[C@]3(C)[C@@H]([C@H](C)CCC(=O)O)[C@@H](O)C[C@@H]23)[C@@]2(C)CC[C@@H](O)C[C@@H]12 [Compound 10, 3α,7α,16β-trihydroxy-6α-ethyl-5β-cholan-24-oic acid sodium salt]",Albumin Binding,[1],83%
same,IC50,[2],64 µM
same,Compound recovered unmodified in human stool cultures,"[3]; after 24 hour incubation, 0.05 mM, 37° C.",more than 85%
same,Side chain stability to intestinal bacteria,[3]; human stool cultures,very stable for side chain metabolism
same,"Hepatic metabolism, species in bile after iv administration","[4]; bile fistula rat, mass spectrometry",secreted in bile as such and mainly conjugated with taurine
same,Conc. in bile,[4]; [9],40 µM
same,Secretion (biliary),[4]; [9],0.002 µmol/kg/min
same,Biliary secretion after iv infusion,"[4]; femoral infusion 1 μmol/kg/min, bile fistula rat",not efficient
same,Conc. in bile,"[4]; femoral infusion, 90 min",2300 µM
same,Conc. in bile,"[4]; femoral infusion, 120 min",900 µM
same,Conc. in bile,"[4]; femoral infusion, 150 min",60 µM
same,Conc. in bile,"[4]; femoral infusion, 180 min",40 µM
same,Conc. in bile,"[4]; femoral infusion, 210 min",20 µM
same,Secretion (biliary),"[4]; femoral infusion, 90 min",0.127 µmol/kg/min
same,Secretion (biliary),"[4]; femoral infusion, 120 min",0.065 µmol/kg/min
same,Secretion (biliary),"[4]; femoral infusion, 150 min",0.004 µmol/kg/min
same,Secretion (biliary),"[4]; femoral infusion, 180 min",0.003 µmol/kg/min
same,Secretion (biliary),"[4]; femoral infusion, 210 min",0.001 µmol/kg/min
same,EC50 at 4 h,[5],> 1000 µM
same,Detergency (CMC and surface tension lowering capacity),[6]; NaCl […],moderate detergent
same,CMC […] Na+,[6]; […] NaCl water solution,5.9 mM
same,STCMC: Surface Tension at CMC,[6]; […] NaCl water solution,52.4 Dyne/cm
same,LogPA-: 1-octanol-water partition coefficient,[7],1.6
same,EC50,"[8]; FRET (cAMP) NCI-H716 hTGR5 EC50, Table 1, NCI-H716 cells",0.65 µM
same,EC50,"[8]; TGR5 Activation EC50, Table 6, cAMP level on NCI-H716",0.6 µM
